Laboratory results: ChEMBL document CHEMBL1157539, “Thousands of chemical starting points for antimalarial lead identification” (Nature, 2010)

tested on: Plasmodium falciparum; assay: GSK_TCMDC: Inhibition of Plasmodium falciparum 3D7 in whole erythrocytes, using parasite LDH activity as an index of growth.; type: functional, organism-based; settings: Plasmodium falciparum, 3D7

Compound	XC50
Cc1cc(C)cc(OCC(O)CN(CCN2CCOCC2)C(=O)Nc2ccc(Br)cc2)c1 (stereo unspecified)	1030 nM
O=C(Nc1ccc2c(c1)CCN(C1CCC1)CC2)c1ccc(-n2ccnc2)cn1	373 nM
COc1cccc(CNC(=O)c2cccc(-c3ccc(CN4CCC(N5CCCC5)CC4)cc3)n2)c1	1790 nM
Cc1cccn2c(=O)c3cc(C(=O)NCc4cccnc4)c(=N)n(CCc4ccccc4)c3nc12	714 nM
O=c1cc(NCCCNCc2cc3ccccc3s2)[nH]c2ccccc12	1270 nM
O=C(Cc1cccnc1)N(Cc1ccc(-c2ccc(CNCc3cccnc3)cn2)cc1)C1CCN(Cc2ccccc2)CC1	803 nM
CCNc1cc(C(=O)N[C@@H](Cc2ccccc2)[C@H](O)CNC(C)(C)Cc2cccc(Cl)c2)cc(N2CCCCS2(=O)=O)c1	887 nM
COc1ccc2ncc(Cl)c(CCN3CC[C@@H](CNCc4cc5c(cn4)OCS5)C3)c2n1	811 nM
NCC1CCCN1Cc1cccc(-c2ccc(-c3nc4cc(C(F)(F)F)ccc4[nH]3)s2)c1 (stereo unspecified)	748 nM
COc1ccc(Cn2c(Nc3cccc(C(F)(F)F)c3)nc3cc(C(=O)NCCCN(C)C)ccc32)cc1Cl	913 nM
CS(=O)(=O)c1ccc(CCNCc2ccc(-c3ccc(CN(C(=O)c4ccco4)C4CCN(Cc5ccccc5)CC4)cc3)nc2)cc1	884 nM
CCCCc1ccc(CCNCCCCCCNCCc2ccc(O)c(O)c2)cc1	1070 nM
CCCNCc1ccc(-c2ccc(CN(C(=O)c3nn(-c4ccccc4)nc3C)C3CC3)cc2)nc1	210 nM
CCCNS(=O)(=O)c1ccc(NC(=O)C(C)Oc2ccc([N+](=O)[O-])cc2)cc1 (stereo unspecified)	719 nM
CCCCN1CCN(CCCNc2c3ccccc3nc3ccccc23)CC1	512 nM
COc1cccc(-c2ccc(NC(=O)C3CCCN(Cc4cccc(OC)c4O)C3)cc2)c1 (stereo unspecified)	847 nM
CCN(CC)CCCN(CCCN(CC)CC)c1cc(C)nc(Nc2ccc(Br)cc2)n1	200 nM
c1ccc(-c2cc(NCCCCNc3cc(-c4ccccc4)nc4ccccc34)c3ccccc3n2)cc1	133 nM
Cc1cc2nc(-c3ccc(C(=O)NCc4ccc(C(C)(C)C)cc4)cc3)[nH]c2cc1C	772 nM
COc1cc(NCC(O)CNc2cc(OC)c3ccccc3n2)nc2ccccc12	109 nM
Cc1ccc2sc(N(CCCn3ccnc3)C(=O)c3ccco3)nc2c1C	966 nM
CC(=NNC(=N)N)c1ccc2c(ccc3ccccc32)c1	833 nM
CC(C)(CNCc1cccc(Oc2cccc(C(F)(F)F)c2)c1)c1nc(-c2ccnc(N)n2)c(-c2ccc(Cl)c(O)c2)[nH]1	193 nM
Clc1ncccc1-c1nc(NCCC(c2ccccc2)c2ccccc2)no1	1000 nM

Compound	XC50
CCCN1CCN(CCCCNc2c3ccccc3nc3ccccc23)CC1	409 nM
c1cncc(CNc2ncc(-c3ccsc3)c(-c3nccs3)n2)c1	1380 nM
CC(C)(C)c1ccc(CN2CCC(CNC(=O)c3cc(-c4cccc(F)c4)cs3)C2)cc1 (stereo unspecified)	898 nM
NC(=O)c1ccc(NCC(=O)Nc2cccc(-c3cccc(-c4nc5cc(F)ccc5[nH]4)c3)c2)cc1	867 nM
Cc1cc(N2CCCCC2)nc2ccc(NC(=O)c3cccc([N+](=O)[O-])c3)cc12	378 nM
CCN(CC(C)O)C(=O)c1ccc(-c2cccc(-c3nc4cccc(C)c4[nH]3)c2)cc1 (stereo unspecified)	639 nM
c1ccc2c(NCCCCCCNc3c4c(nc5ccccc35)CCCC4)c3c(nc2c1)CCCC3	196 nM
CCCc1cc(OC)c(CC2c3cc(O)c(C)cc3CCN2C)cc1OC (stereo unspecified)	701 nM
COc1cc2ncnc(Nc3ccc4nc(-c5ccccc5)[nH]c4c3)c2cc1OC	443 nM
CCO[C@H]1CN[C@H](C#Cc2cc3c(Nc4ccc(OCc5cccc(F)c5)c(Cl)c4)ncnc3s2)C1	939 nM
CC(C)(C)c1ccc(-c2nnc(N)nc2N)cc1	862 nM
COc1ccc(N(C)Cc2cnc3nc(N)nc(N)c3n2)cc1	284 nM
OCCN1CCN(C(=S)Nc2ccccc2)CC1	936 nM
CC(C)(C)c1ccc(NC(=O)c2cccc(CN3CCCN(Cc4cccc(O)c4)CC3)c2)cc1	552 nM
Cc1nc(NC2=NCN(CCCN3CCOCC3)CN2)nc2c(C)cccc12	1130 nM
NCCCCc1c(-c2ccc(Cl)c(Cl)c2)[nH]c2ccc(Cl)cc12	912 nM
COc1cc(NC(=O)NC(CCN2CCC3(CCc4ccccc43)CC2)c2ccc(Cl)c(Cl)c2)cc(OC)c1OC (stereo unspecified)	679 nM
CN1C(C)(C)CC(NC(=O)c2ccc(-c3cc4cc(Cl)c(Cl)cc4[nH]3)o2)CC1(C)C	1120 nM
O=C(O[C@@H]1CN[C@H](C#Cc2cc3c(Nc4ccc5c(cnn5Cc5ccccc5)c4)ncnc3s2)C1)N1CCCC1	424 nM
CCc1c[nH]c2c(N3CCCS3(=O)=O)cc(C(=O)N[C@@H](Cc3ccccc3)[C@H](O)CNC(C)(C)CCCC(C)C)cc12	672 nM
C=CCc1cccc(OC)c1OCCCON1C(=N)N=C(N)NC1(C)C	3.2 nM
NCCCNc1ccc(-c2ccc(NC(=O)Nc3cc(C(F)(F)F)ccc3F)cc2)cn1	837 nM
NCc1ccc(CNCc2ccc(-c3ccc(-c4nc5cc(C(F)(F)F)ccc5[nH]4)s3)cc2)cc1	157 nM
O=C(c1cccc(-c2ccc(-c3nc4cc(F)ccc4[nH]3)s2)c1)N1CCCCC1CN1CCC(O)C1 (stereo unspecified)	715 nM

Compound	XC50
CC(=O)Nc1ccc(C(=O)Nc2cccc(-c3ccc(-c4nc5cc(C(F)(F)F)ccc5[nH]4)s3)c2)cn1	126 nM
CC(C)Oc1cc2c(cc1NS(=O)(=O)c1ccc(-c3ccc(Cl)s3)cc1F)CCN(C)CC2	712 nM
O=C(C=Cc1ccc(Cl)c(Cl)c1)NCCCCCN1CCCC(CCCNS(=O)(=O)c2cccc(C(F)(F)F)c2)C1 (stereo unspecified)	962 nM
COc1cc2c(Nc3ccc(NC(=O)c4ccccc4)cc3)ncnc2cc1OCCCN1CCOCC1	648 nM
CCNc1cc(C(=O)N[C@@H](Cc2ccccc2)[C@H](O)CN[C@H](C)c2ccccc2)cc(N2CCCC2=O)c1	54.3 nM
COc1ccc(CNCc2ccc(-c3cccc(-c4nc5ccccc5[nH]4)c3)cc2)cc1	214 nM
COC(=O)c1ccc(CC(C)NCC(O)c2cccc(OCc3ccccc3)c2)cc1 (stereo unspecified)	1160 nM
CCN(CC)S(=O)(=O)c1ccc(C(=O)Oc2ccccc2N(Cc2ccc(OC)cc2)C2=NS(=O)(=O)c3ccccc32)cc1	585 nM
COCn1ccc2c3c(N)nc(N)nc3ccc21	990 nM
FC(F)(F)c1ccc2[nH]c(-c3cccc(-c4cccc(CNCC5CCCO5)c4)c3)nc2c1 (stereo unspecified)	422 nM
CN(C)c1ccc(-c2csc(C(=O)NCC3CCN(CC4CCCCC4)C3)c2)cc1 (stereo unspecified)	1140 nM
CC[C@H]1CN2CC[C@@H]1C[C@H]2[C@H](O)c1ccnc2ccc(Cl)cc12	119 nM
COc1ccc(NC(=O)/C=C/c2cc(F)cc(C(F)(F)F)c2)cc1OCCN(C(C)C)C(C)C	669 nM
COc1ccccc1-c1ccc2nnc(SCC(=O)Nc3ccc4c(c3)OCCO4)n2n1	716 nM
CC(=O)CCc1ccc(OCCN(Cc2ccccc2C(F)(F)F)c2ccc(C#N)c(C(F)(F)F)c2)cc1	267 nM
CS(=O)(=O)NCCCNCc1ccc(-c2ccc(-c3nc4cc(C(F)(F)F)ccc4[nH]3)cc2)cc1	457 nM
Cc1cc2nc(-c3ccc(C(=O)NCc4cccc(C(F)(F)F)c4)cc3)[nH]c2cc1C	807 nM
NC1=NC(Cc2ccccc2)N(c2ccc(Cl)cc2)C(N)=N1 (stereo unspecified)	137 nM
CC1CCN(CC[C@H]2CCCN2S(=O)(=O)c2cccc(NC(=O)Nc3ccc(C(F)(F)F)cc3)c2)CC1	722 nM
CC(=O)Nc1ccc(OCCCCN(Cc2ccccc2C(F)(F)F)c2ccc(C#N)c(C(F)(F)F)c2)c(Cl)c1	981 nM
O=C(Nc1ccc(Cl)cc1)N[C@H]1CCN(CCCCCNC(=O)C2CC2c2ccc(Cl)c(Cl)c2)C1 (stereo partly specified)	874 nM
CCC(O)c1ccc(Br)cc1NC(=O)c1cccc(Cl)c1 (stereo unspecified)	1020 nM
C=CCn1c(=N)n(CC(O)c2ccc(Cl)c(Cl)c2)c2ccccc21 (stereo unspecified)	338 nM
COC(=O)c1cccc(OCCNC2CCN(C[C@H](O)c3ccnc4ccc(OC)cc34)CC2)c1	342 nM

Compound	XC50
CCc1cn(CCOC)c2ccc(C(=O)N[C@@H](Cc3ccccc3)[C@H](O)CNC(C)(C)CCCC(C)C)cc12	569 nM
O=C(Cc1cc(F)cc(F)c1)NC1CCN(c2ccnc3cc(Cl)ccc23)C1 (stereo unspecified)	250 nM
O=C(NCC1CCC(CNCCCc2ccccc2)CC1)Nc1ccc(Cl)c(Cl)c1 (stereo unspecified)	767 nM
Cc1cccc2nc(-c3cccc(-c4cccc(NC(=O)Nc5ccccc5)c4)c3)[nH]c12	139 nM
O=C(Nc1cccc(-c2cccc(CN3CCCC3)c2)c1)c1ccc(Cl)cc1	684 nM
O=C(/C=C/c1ccc(Cl)c(Cl)c1)NCCCCCN1CCC(c2c[nH]c3c(-c4ccccc4)cccc23)CC1	246 nM
COc1ccc(-c2cccc(NC(=O)c3cccc(C#N)c3)c2)cc1CN(C)CCN(C)C	314 nM
O=C(Nc1cccc(CN2CCCN(Cc3ncc[nH]3)CC2)c1)c1ccc2ccccc2c1	632 nM
O=C1Nc2cccc3c2C1(CCCN1CCC(c2c[nH]c4cc(C(F)(F)F)ccc24)CC1)CCC3 (stereo unspecified)	961 nM
N#Cc1ccc(-c2ccc(C(=O)NCCCCN3CCC(c4nc5ccccc5[nH]4)CC3)cc2)cc1	1010 nM
O=C(NC1CCN(CC2(c3ccc(Cl)cc3)CCC2)CC1)c1cscn1	535 nM
CC(C)c1ccc(NC(=O)Nc2ccc(CCNCCCc3ccccc3)cc2)cc1	761 nM
O=S(=O)(Nc1cccc(CCN2CCCCC2CCN2CCCC2)c1)c1ccc(-c2ccccc2)cc1 (stereo unspecified)	1090 nM
Fc1ccc2cc(C=Cc3ccncc3)[nH]c2c1	617 nM
O=C(N[C@@H](Cc1ccccc1)C(=O)NC1CCCc2ccccc21)c1ccc(O)c(-c2ccc(Cl)c(Cl)c2)c1 (stereo partly specified)	209 nM
O=C(Nc1ccccc1)c1c[nH]cn1	991 nM
COc1ccc(C)c(Nc2ccnc(Nc3ccc(-c4cnc[nH]4)cc3)n2)c1	1370 nM
O=C(Nc1cccc(-c2nn3ncccc3c2-c2ccnc(Nc3ccccc3)n2)c1)c1c(F)cccc1F	726 nM
C=CCc1cc(Br)ccc1OCCCOc1c(N)nc(N)nc1N	192 nM
COc1cc(CNc2ccc(N3CCCC3)cc2)cc(Cl)c1OC	700 nM
O=C(Nc1cccc(N2CCC(NCCCc3ccncc3)CC2)c1)c1cccc(C(F)(F)F)c1	853 nM
CCCCOc1ccc(-c2nc3ccccc3[nH]2)cc1	865 nM
Cc1ccc(CON2C(N)=NC(N)=NC2(C)C)c(Cl)c1.Cc1ccc(CON2C(N)=NC(N)=NC2(C)C)cc1Cl	3.2 nM
CC(C)(C)c1ccc2[nH]c(-c3ccc(/C=C/C(=O)NCc4cccc(C(F)(F)F)c4)cc3)nc2c1	986 nM
